In article PMC11344848, “Proximity-driven site-specific cyclization of phage-displayed peptides” (Nature Communications, 2024):

Assay: N-terminal-to-internal Cys bridging with heterobifunctional cyclopropenone-chloroacetamide linker (CCA): DTT reduction, cyclopropenone condensation with N-terminal Cys 1,2-aminothiol (1,4-thiazepan-5-one), then proximity-driven intramolecular thioether formation between internal Cys thiol and chloroacetamide
Conditions: the molecule shown is the open-chain precursor, PBS pH 7.4, 5% DMSO, 0.01 mM, 25.0 °C, 2.0 h, 2 steps

For H-CPEGYILDDGFCTDIDE-[D1/D2 pIII fusion], the ring closure, conversion by HPLC (49-membered ring) was 100%.

H-CQPHPGQTC-[AAA-D1/D2 pIII fusion] gave a ring closure, conversion by HPLC (40-membered ring) of 100%.

For H-CGSGGSGC-[AAA-D1/D2 pIII fusion], the ring closure, conversion by HPLC (37-membered ring) was 100%.

H-CYKLAEGDKYYIC-[D1/D2 pIII fusion] showed a ring closure, conversion by HPLC (52-membered ring) of 100%.

Compound H-CGGSGGC-[WLAAA-D1/D2 pIII fusion] has a ring closure, conversion by HPLC (34-membered ring) of 100%.

For `N=C(N)NCCC[C@H](NC(=O)[C@@H]1CCCN1C(=O)[C@H](CS)NC(=O)[C@H](CC(N)=O)NC(=O)[C@H](CCC(N)=O)NC(=O)[C@H](Cc1ccccc1)NC(=O)[C@H](Cc1ccc(O)cc1)NC(=O)[C@@H]1CSCC(CCCC(=O)N2CCN(C(=O)CCl)CC2)C(=O)N1)C(=O)NCC(N)=O` (stereo partly drawn) [H-CYFQNCPRG-NH2], the ring closure, conversion by HPLC (31-membered ring) was over 95%.
